Source: BindingDB's records for doi:10.1021/jm051273d (University of North Carolina At Chapel Hill, 2006)

Key:
Test in all cases: PDE4 Activity Assay
Settings in all cases: pH 7.5; 22 °C
[1] = molecular target: cAMP-specific 3',5'-cyclic phosphodiesterase 4A (Homo sapiens, UniProt P27815)
Protocol: (§1) PDE4 catalytic activity was monitored by measuring the hydrolysis of [3H]-cAMP to [3H]-AMP using PDE-SPA kit (Amersham International). [3H]-AMP was captured by the SPA beads, and quantified on a Wallac-Microbeta scintillation counter. A linear reaction progress curve (30 min) and a linear enzyme concentration response (0 to 500 pM) were observed. The IC50 value was calculated from an 11-point dose-response curve performed in duplicate using a 4-parameter least-squares nonlinear regression fit.

[2] = molecular target: cAMP-specific 3',5'-cyclic phosphodiesterase 4B (Homo sapiens, UniProt Q07343)
cAMP-specific 3',5'-cyclic phosphodiesterase 4B, sequence (Q07343 whole entry): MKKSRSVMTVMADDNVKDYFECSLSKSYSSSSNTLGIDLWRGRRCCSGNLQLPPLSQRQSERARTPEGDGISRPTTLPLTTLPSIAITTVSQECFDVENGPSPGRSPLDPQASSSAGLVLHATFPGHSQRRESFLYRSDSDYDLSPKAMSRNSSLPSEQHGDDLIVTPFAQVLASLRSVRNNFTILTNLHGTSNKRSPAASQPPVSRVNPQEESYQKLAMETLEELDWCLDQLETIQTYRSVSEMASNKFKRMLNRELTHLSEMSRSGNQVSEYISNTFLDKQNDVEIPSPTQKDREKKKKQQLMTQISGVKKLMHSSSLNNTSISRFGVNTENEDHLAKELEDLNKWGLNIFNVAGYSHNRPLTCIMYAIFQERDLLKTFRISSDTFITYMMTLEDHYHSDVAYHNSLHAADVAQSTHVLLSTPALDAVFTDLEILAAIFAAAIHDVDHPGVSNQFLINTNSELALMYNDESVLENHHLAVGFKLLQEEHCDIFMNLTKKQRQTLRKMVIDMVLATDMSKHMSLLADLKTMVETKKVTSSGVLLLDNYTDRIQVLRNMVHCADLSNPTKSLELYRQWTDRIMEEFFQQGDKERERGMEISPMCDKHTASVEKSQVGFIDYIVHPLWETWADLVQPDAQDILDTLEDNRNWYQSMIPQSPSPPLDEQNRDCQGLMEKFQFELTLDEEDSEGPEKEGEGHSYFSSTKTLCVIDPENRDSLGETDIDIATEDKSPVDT
Protocol: as §1

[3] = molecular target: cAMP-specific 3',5'-cyclic phosphodiesterase 4C (Homo sapiens, UniProt Q08493)
cAMP-specific 3',5'-cyclic phosphodiesterase 4C, sequence (Q08493 whole entry): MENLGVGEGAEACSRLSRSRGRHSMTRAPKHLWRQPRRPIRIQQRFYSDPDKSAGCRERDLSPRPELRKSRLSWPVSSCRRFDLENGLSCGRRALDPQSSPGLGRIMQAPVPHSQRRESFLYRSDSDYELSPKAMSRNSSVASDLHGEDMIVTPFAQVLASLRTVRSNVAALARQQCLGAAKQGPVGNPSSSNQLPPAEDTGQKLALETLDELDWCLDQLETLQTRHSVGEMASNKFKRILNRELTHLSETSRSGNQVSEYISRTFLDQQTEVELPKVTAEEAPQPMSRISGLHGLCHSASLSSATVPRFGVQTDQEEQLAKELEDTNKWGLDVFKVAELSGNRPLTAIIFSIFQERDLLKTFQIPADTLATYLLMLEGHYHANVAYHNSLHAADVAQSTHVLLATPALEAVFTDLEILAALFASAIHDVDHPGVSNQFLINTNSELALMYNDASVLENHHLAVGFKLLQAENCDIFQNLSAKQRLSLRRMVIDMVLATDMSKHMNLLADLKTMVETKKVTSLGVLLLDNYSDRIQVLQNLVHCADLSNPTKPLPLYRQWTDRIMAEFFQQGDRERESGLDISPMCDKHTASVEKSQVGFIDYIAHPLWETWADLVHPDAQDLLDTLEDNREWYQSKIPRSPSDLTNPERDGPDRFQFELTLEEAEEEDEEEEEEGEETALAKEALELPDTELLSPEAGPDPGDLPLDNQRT
Protocol: as §1

[4] = molecular target: cAMP-specific 3',5'-cyclic phosphodiesterase 4D (Homo sapiens, UniProt Q08499)
cAMP-specific 3',5'-cyclic phosphodiesterase 4D, sequence (Q08499 whole entry): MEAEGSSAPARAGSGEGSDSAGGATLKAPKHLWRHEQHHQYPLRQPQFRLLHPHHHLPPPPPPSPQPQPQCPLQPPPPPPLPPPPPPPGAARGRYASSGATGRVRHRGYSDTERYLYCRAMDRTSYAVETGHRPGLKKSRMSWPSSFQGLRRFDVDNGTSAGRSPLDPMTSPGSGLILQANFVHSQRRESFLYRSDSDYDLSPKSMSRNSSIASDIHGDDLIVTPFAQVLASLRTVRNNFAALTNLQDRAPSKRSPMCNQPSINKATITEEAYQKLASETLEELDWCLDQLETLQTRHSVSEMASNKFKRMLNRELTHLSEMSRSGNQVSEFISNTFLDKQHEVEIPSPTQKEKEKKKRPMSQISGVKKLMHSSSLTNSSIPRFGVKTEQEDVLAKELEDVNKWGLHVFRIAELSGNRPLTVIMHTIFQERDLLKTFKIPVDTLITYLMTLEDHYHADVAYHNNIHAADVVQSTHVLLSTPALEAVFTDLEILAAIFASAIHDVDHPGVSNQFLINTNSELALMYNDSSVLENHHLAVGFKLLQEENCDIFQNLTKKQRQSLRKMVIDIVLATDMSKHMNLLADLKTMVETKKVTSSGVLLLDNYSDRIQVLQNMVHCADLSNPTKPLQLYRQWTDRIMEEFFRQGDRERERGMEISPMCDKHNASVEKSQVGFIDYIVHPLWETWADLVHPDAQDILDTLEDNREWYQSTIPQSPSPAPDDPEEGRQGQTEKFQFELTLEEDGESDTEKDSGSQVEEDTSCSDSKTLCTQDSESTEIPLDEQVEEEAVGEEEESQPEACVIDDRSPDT
Protocol: as §1

cAMP-specific 3',5'-cyclic phosphodiesterase 4A, sequence (P27815 whole entry): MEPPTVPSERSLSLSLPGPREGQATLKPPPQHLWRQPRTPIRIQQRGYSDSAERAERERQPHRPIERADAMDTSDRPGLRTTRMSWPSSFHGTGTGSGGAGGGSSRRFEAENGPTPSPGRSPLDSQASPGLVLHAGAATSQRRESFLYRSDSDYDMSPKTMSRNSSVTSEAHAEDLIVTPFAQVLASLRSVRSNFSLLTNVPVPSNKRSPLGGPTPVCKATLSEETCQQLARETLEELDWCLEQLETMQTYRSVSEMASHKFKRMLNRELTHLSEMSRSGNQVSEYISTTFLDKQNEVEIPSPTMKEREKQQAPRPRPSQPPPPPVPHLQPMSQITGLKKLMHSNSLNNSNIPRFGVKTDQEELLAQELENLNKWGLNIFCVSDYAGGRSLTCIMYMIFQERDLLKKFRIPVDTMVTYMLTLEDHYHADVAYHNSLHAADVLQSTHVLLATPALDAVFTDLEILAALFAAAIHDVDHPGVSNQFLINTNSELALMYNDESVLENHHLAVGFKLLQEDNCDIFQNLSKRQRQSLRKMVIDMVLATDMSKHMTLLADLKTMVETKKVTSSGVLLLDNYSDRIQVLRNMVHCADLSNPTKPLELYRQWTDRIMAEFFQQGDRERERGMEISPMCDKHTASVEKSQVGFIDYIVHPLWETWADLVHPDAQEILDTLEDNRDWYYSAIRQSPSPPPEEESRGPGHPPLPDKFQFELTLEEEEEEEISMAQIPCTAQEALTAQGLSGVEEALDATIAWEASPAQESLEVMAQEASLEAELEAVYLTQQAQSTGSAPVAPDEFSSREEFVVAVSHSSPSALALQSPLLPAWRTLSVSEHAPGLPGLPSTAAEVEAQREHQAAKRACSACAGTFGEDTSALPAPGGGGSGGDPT

IC50 [1] [nM]	IC50 [2] [nM]	IC50 [3] [nM]	IC50 [4] [nM]	SMILES
56	40	135		[O-][n+]1cccc(C[C@H](c2ccc(OC(F)F)c(OC3CC3)c2)c2ncc(C(O)(C(F)(F)F)C(F)(F)F)s2)c1 [(R)-(-)-3-{2-[(3-cyclopropyloxy-4-difluromethoxy)phenyl]-2-[5-(2-(1-hydroxy-1-trifluoromethyl-2,2,2-trifluoro)ethyl)thiazolyl]ethyl}pyridine N-Oxide]
0.4	0.4	1	0.4	[O-][n+]1cccc(C[C@@H](c2ccc(OC(F)F)c(OC3CC3)c2)c2ncc(C(O)(C(F)(F)F)C(F)(F)F)s2)c1 [3-[(2S)-2-[3-cyclopropoxy-4-(difluoromethoxy)phenyl]-2-[5-(1,1,1,3,3,3-hexafluoro-2-hydroxypropan-2-yl)-1,3-thiazol-2-yl]ethyl]-1-oxidopyridin-1-ium]
